The supplement of paper PMC5908809

Experiments:
[1] = test system: normal NK cells expanded with K562-aAPC; experiment: drug sensitivity score (DSS) (DSS units); higher = more sensitive; extreme values may be limits of the assay; settings: 72 h; IL-2 2.5 ng/mL
Procedure: (§1)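 Drug sensitivity and resistance testing on K562-aAPC-expanded normal NK cells: 5 concentrations (10-fold steps over a 10,000-fold range), 72 h at 37 °C, viability by CellTiter-Glo normalised to DMSO and benzethonium chloride controls; DSS from the fitted curve.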

[2] = test system: normal NK cells expanded with K562-aAPC; experiment: percent inhibition of viability; higher = more inhibition; settings: 72 h, IL-2 2.5 ng/mL
Procedure: as §1

[3] = test system: SNK-6 (IL-2 2.5 ng/mL); experiment: drug sensitivity score (DSS) (DSS units); higher = more sensitive; extreme values may be limits of the assay; settings: 72 h
[4] = test system: normal primary NK cells, pool 3 (3 donors) (IL-2 2.5 ng/mL); experiment: as above; settings: 72 h
[5] = test system: KAI3 (IL-2 2.5 ng/mL); experiment: as above; settings: 72 h
[6] = test system: NK-YS (IL-2 2.5 ng/mL); experiment: as above; settings: 72 h
[7] = test system: normal primary NK cells, pool 1 (3 donors) (IL-2 2.5 ng/mL); experiment: as above; settings: 72 h
[8] = test system: NKL (IL-2 2.5 ng/mL); experiment: as above; settings: 72 h
[9] = test system: IMC-1 (IL-2 20 ng/mL); experiment: as above; settings: 72 h
[10] = test system: DERL-7 (IL-2 2.5 ng/mL); experiment: as above; settings: 72 h
[11] = test system: YT (IL-2 2.5 ng/mL); experiment: as above; settings: 72 h
[12] = test system: normal primary NK cells, pool 1 (3 donors), resting (IL-2 0 ng/mL); experiment: as above; settings: 72 h
[13] = test system: NK-92 (IL-2 2.5 ng/mL); experiment: as above; settings: 72 h
[14] = test system: normal primary NK cells, pool 2 (3 donors) (IL-2 2.5 ng/mL); experiment: as above; settings: 72 h
[15] = test system: KHYG-1 (IL-2 2.5 ng/mL); experiment: as above; settings: 72 h
[16] = test system: SNK-6 (IL-2 2.5 ng/mL); experiment: percent inhibition of viability; higher = more inhibition; settings: 72 h
[17] = test system: normal primary NK cells, pool 3 (3 donors) (IL-2 2.5 ng/mL); experiment: as above; settings: 72 h
[18] = test system: KAI3 (IL-2 2.5 ng/mL); experiment: as above; settings: 72 h
[19] = test system: NK-YS (IL-2 2.5 ng/mL); experiment: as above; settings: 72 h
[20] = test system: normal primary NK cells, pool 1 (3 donors) (IL-2 2.5 ng/mL); experiment: as above; settings: 72 h
[21] = test system: NKL (IL-2 2.5 ng/mL); experiment: as above; settings: 72 h
[22] = test system: IMC-1 (IL-2 20 ng/mL); experiment: as above; settings: 72 h
[23] = test system: DERL-7 (IL-2 2.5 ng/mL); experiment: as above; settings: 72 h
[24] = test system: YT (IL-2 2.5 ng/mL); experiment: as above; settings: 72 h
[25] = test system: normal primary NK cells, pool 1 (3 donors), resting (IL-2 0 ng/mL); experiment: as above; settings: 72 h
[26] = test system: NK-92 (IL-2 2.5 ng/mL); experiment: as above; settings: 72 h
[27] = test system: normal primary NK cells, pool 2 (3 donors) (IL-2 2.5 ng/mL); experiment: as above; settings: 72 h
[28] = test system: KHYG-1 (IL-2 2.5 ng/mL); experiment: as above; settings: 72 h

O=C(c1cc(Cc2n[nH]c(=O)c3ccccc23)ccc1F)N1CCN(C(=O)C2CC2)CC1 [Olaparib] (max concentration tested 10000 nM)
Settings	drug sensitivity score
[1]	3.25
[3]	8.04
[4]	0.4
[5]	7.15
[6]	8.28
[7]	0
[8]	14.5
[9]	4.75
[10]	1.54
[11]	1.37
[12]	0.22
[13]	7.35
[14]	0.48
[15]	5.78

percent inhibition of viability [%]
Settings	1 nM	10 nM	100 nM	1000 nM	10000 nM
[2]	5.19	4.79	5.47	7.88	39.6
[16]	1.96	-1.75	-10.2	19.4	89.5
[17]	-7.91	-1.82	-4.22	3.8	13.5
[18]	0.33	3.77	9.9	28.6	72.2
[19]	-6.43	-6.57	3.49	20.7	90.7
[20]	3.22	7.12	-3.15	3.31	8.24
[21]	0.33	9.8	27.9	57.2	80.5
[22]	2.29	1.77	7.69	13.7	53.5
[23]	-1.68	4.77	-8.94	1.1	31.5
[24]	4.35	1.35	5.37	3.91	22.8
[25]	-10.9	1.92	-9.9	-1.32	15.6
[26]	4.94	9.54	8.93	21.5	79.2
[27]	-7.93	-9.67	-11	2.31	15.4
[28]	-5.18	-5.25	0.38	10.5	72.6

COc1ccccc1S(=O)(=O)Nc1ccc2c(c1)CN(C)C(=O)N2 [PFI-1] (max concentration tested 10000 nM)
Settings	drug sensitivity score
[1]	4.03
[3]	3.9
[4]	2.17
[5]	3.39
[6]	7.15
[7]	1.98
[8]	8.04
[9]	2.96
[10]	9.94
[11]	3.74
[12]	0.99
[13]	0.06
[14]	4.3
[15]	8.09

percent inhibition of viability [%]
Settings	1 nM	10 nM	100 nM	1000 nM	10000 nM
[2]	1.38	-2.34	0.83	10.4	45.7
[16]	-3.16	-6.59	7.82	7.89	48.9
[17]	-2.26	-5.87	0.68	4.06	32.9
[18]	-2.2	1.8	-7.46	5.35	48
[19]	-6.14	-3.35	2.77	24.8	70
[20]	1.67	-1.14	-0.56	0.29	39.4
[21]	-16	-14.6	-8.15	32	70.4
[22]	-2.65	-6.11	-1.36	1.44	52.3
[23]	-2.29	2.86	9.32	41.8	91.8
[24]	1.99	0.44	-0.45	5.52	53.1
[25]	-7.18	7.82	-0.65	-5.17	29.6
[26]	-6.34	6.35	-0.51	-18.3	14.6
[27]	-9.32	-3.5	-1.83	9.71	50.9
[28]	-2.18	-2.43	-0.21	19.9	89.2

CCn1nnc2c(N3CCOCC3)nc(-c3ccc(NC(=O)Nc4ccc(C(=O)N5CCN(C)CC5)cc4)cc3)nc21 [PKI-402] (max concentration tested 2500 nM)
Settings	drug sensitivity score
[1]	4.52
[3]	6.93
[4]	3.19
[5]	11.4
[6]	10.6
[7]	7.21
[8]	11.6
[9]	0.69
[10]	15.9
[11]	10.6
[12]	7.08
[13]	5.62
[14]	3.74
[15]	8.93

percent inhibition of viability [%]
Settings	0.25 nM	2.5 nM	25 nM	250 nM	2500 nM
[2]	-5.93	-8.28	-5.99	11.4	51
[16]	-8.78	-15.4	-7.51	33.2	54.5
[17]	-10.9	-4.56	0.88	11	34.4
[18]	-2.89	-4.76	8.59	55.9	67.9
[19]	-6.47	-8.86	4.39	52	75.7
[20]	1.41	-3.9	19.1	28.9	48.2
[21]	-5.68	-11.2	4.32	60	68.9
[22]	-5.86	-7.07	-15	-6.11	25.1
[23]	-1.72	1.39	10.1	79.5	93.8
[24]	-3.62	-7.8	0.22	50.5	82.6
[25]	-7.29	0.44	14.9	31.1	26.7
[26]	-19.1	-16.8	-1.05	13.1	63.7
[27]	-8.91	-3.82	2.65	17.3	38.4
[28]	-6.21	-11	-2.81	30.4	84.9

C1=N/C2=N/c3ccc(OCCN4CCCC4)c(c3)COC/C=C/COCc3cccc(c3)C(=C1)N2 [Pacritinib] (max concentration tested 10000 nM)
Settings	drug sensitivity score
[1]	12.8
[3]	9.9
[4]	14.1
[5]	14.2
[6]	11.7
[7]	16.2
[8]	13.1
[9]	4.5
[10]	14.1
[11]	12.2
[12]	12.6
[13]	10.7
[14]	16.2
[15]	12.8

percent inhibition of viability [%]
Settings	1 nM	10 nM	100 nM	1000 nM	10000 nM
[2]	-2.28	-6.13	9.28	58.8	99.4
[16]	-2.06	1.27	-10.4	30.5	99.4
[17]	-10.8	-10.8	0.28	75.3	98.7
[18]	-4.38	0.97	8.91	68.1	102
[19]	-5.53	0.76	3.37	50.8	102
[20]	2.77	-5.07	8.34	82.1	99.9
[21]	-10.8	-10.3	-2.07	65.3	102
[22]	-5.72	-0.5	-10.2	-17.7	98.5
[23]	-0.5	3.08	13.1	64.9	99.9
[24]	-5.32	-0.86	-1.84	55.9	102
[25]	-8.26	-5.07	-1.15	60.6	99.4
[26]	-16.4	-11.8	1.4	37.9	100
[27]	-8.58	0.56	8.47	82.3	95.9
[28]	-2.5	-2.14	-0.78	61.7	102

COc1ccc(COc2cc3oc(=O)c4cc(C(C)O)ccc4c3cc2OC)cc1 (stereo not given) [Palomid-529] (max concentration tested 10000 nM)
Settings	drug sensitivity score
[1]	0
[3]	0
[4]	0
[5]	3.78
[6]	3.86
[7]	0
[8]	5.94
[9]	0
[10]	0.82
[11]	4.52
[12]	0
[13]	8.66
[14]	0
[15]	4.78

percent inhibition of viability [%]
Settings	1 nM	10 nM	100 nM	1000 nM	10000 nM
[2]	-9.29	-6.42	-4.58	4.67	5.9
[16]	-15.9	-23.8	-10.8	8.45	5.08
[17]	-14.4	-4.43	2.41	-2.08	5.65
[18]	-1.34	0.71	-2.91	8.03	46.9
[19]	-3.04	-9.05	-5.45	9.61	44.8
[20]	-7.97	-4.09	6.27	8.93	4.45
[21]	-6.62	-2.59	6.05	30.5	33.3
[22]	-5.32	-4.51	2.75	4.92	7.18
[23]	-6.43	-4.11	-0.12	1.25	21.1
[24]	-2.49	-9.33	-3.82	12.3	49.4
[25]	-31.1	-17.8	-2.41	-12.2	10.7
[26]	-6.63	-14.2	2.8	30.5	83.4
[27]	-5.4	-5.23	-8.91	-7.52	4.06
[28]	1.15	-4.29	-3.13	9.18	59.6
